# Columns and labels:
# [1] = biological target: Serine/threonine-protein kinase ULK1 (Homo sapiens) (UniProt O75385); details: Compound concentration 1000.0 nM
# [2] = biological target: Testis-specific serine/threonine-protein kinase 3 (Homo sapiens) (UniProt Q96PN8); details: Compound concentration 1000.0 nM
# [3] = biological target: Glycogen synthase kinase-3 alpha (Homo sapiens) (UniProt P49840); details: Compound concentration 1000.0 nM
# [4] = biological target: Carbonic anhydrase 2 (Homo sapiens) (UniProt P00918); experiment: Carbonic anhydrase II (h) CEREP ligand profiling; details: Compound concentration 10.0 uM
# [5] = biological target: Type-1 angiotensin II receptor (Homo sapiens) (UniProt P30556); experiment: AT1 (h) CEREP ligand profiling; details: Compound concentration 10.0 uM
# [6] = biological target: SRSF protein kinase 2 (Homo sapiens) (UniProt P78362); details: Compound concentration 1000.0 nM
# [7] = test system: Tyrosine-protein kinase ABL1 (Homo sapiens), P00519 [Q252H]; details: Compound concentration 1000.0 nM
# [8] = biological target: Phosphodiesterase 4 (Homo sapiens) (UniProt P27815+Q08499+Q07343+Q08493); experiment: PDE4 (h) CEREP ligand profiling; assay type: protein assay; details: Compound concentration 10.0 uM
# [9] = biological target: Eukaryotic translation initiation factor 2-alpha kinase 1 (Homo sapiens) (UniProt Q9BQI3); details: Compound concentration 1000.0 nM
# [10] = biological target: Beta-3 adrenergic receptor (Homo sapiens) (UniProt P13945); experiment: beta 3 (h) CEREP ligand profiling; details: Compound concentration 10.0 uM
# [11] = biological target: Vasopressin V1a receptor (Homo sapiens) (UniProt P37288); experiment: V1a (h) CEREP ligand profiling; details: Compound concentration 10.0 uM
# [12] = biological target: Melanocyte-stimulating hormone receptor (Homo sapiens) (UniProt Q01726); experiment: MC1 CEREP ligand profiling; details: Compound concentration 10.0 uM
# [13] = biological target: Serine/threonine-protein kinase Chk1 (Homo sapiens) (UniProt O14757); details: Compound concentration 1000.0 nM
# [14] = biological target: Beta-2 adrenergic receptor (Homo sapiens) (UniProt P07550); experiment: beta 2 (h) CEREP ligand profiling; details: Compound concentration 10.0 uM
# [15] = biological target: Tyrosine-protein kinase BTK (Homo sapiens) (UniProt Q06187); details: Compound concentration 1000.0 nM
# Sequence of Tyrosine-protein kinase BTK (Homo sapiens) (Q06187 whole entry): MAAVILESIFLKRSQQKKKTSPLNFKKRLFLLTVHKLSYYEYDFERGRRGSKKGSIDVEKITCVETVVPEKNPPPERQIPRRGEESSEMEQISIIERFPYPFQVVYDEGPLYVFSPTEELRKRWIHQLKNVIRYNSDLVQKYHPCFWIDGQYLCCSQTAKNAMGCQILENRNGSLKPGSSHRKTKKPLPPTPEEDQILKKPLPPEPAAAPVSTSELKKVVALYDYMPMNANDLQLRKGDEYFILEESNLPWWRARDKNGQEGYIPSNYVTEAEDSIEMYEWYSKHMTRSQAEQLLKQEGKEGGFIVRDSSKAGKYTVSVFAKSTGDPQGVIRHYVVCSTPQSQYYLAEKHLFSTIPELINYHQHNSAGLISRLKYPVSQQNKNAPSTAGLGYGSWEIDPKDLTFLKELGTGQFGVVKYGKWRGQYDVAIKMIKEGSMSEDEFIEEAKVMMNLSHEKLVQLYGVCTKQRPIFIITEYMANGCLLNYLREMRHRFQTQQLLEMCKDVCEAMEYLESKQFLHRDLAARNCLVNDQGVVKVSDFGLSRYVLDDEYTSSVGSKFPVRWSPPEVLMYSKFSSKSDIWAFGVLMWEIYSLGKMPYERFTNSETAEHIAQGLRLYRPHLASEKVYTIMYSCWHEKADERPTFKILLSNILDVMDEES
# [16] = biological target: Dual specificity mitogen-activated protein kinase kinase 4 (Homo sapiens) (UniProt P45985); details: Compound concentration 1000.0 nM
# [17] = biological target: Matrix metalloproteinase-9 (Homo sapiens) (UniProt P14780); experiment: MMP-9 (h) CEREP ligand profiling; details: Compound concentration 10.0 uM
# [18] = biological target: Histamine H3 receptor (Homo sapiens) (UniProt Q9Y5N1); experiment: H3 (h) CEREP ligand profiling; details: Compound concentration 10.0 uM
# [19] = biological target: Vasopressin V2 receptor (Homo sapiens) (UniProt P30518); experiment: V2 (h) CEREP ligand profiling; details: Compound concentration 10.0 uM
# [20] = biological target: Sodium/potassium-transporting ATPase (Homo sapiens) (UniProt P05023+P14415+P05026+P50993+P54709+P13637+Q13733+P54710); experiment: ATPase (Na+/K+) CEREP ligand profiling; assay type: protein-complex assay; details: Compound concentration 10.0 uM
# [21] = biological target: Serine/threonine-protein kinase SIK1 (Homo sapiens) (UniProt P57059); details: Compound concentration 1000.0 nM
# [22] = biological target: Aurora kinase C (Homo sapiens) (UniProt Q9UQB9); details: Compound concentration 1000.0 nM
# [23] = biological target: Non-receptor tyrosine-protein kinase TYK2 (Homo sapiens) (UniProt P29597); details: Compound concentration 1000.0 nM
# [24] = biological target: Vascular endothelial growth factor receptor 1 (Homo sapiens) (UniProt P17948); experiment: FLT-1 kinase (h) (VEGFR1) CEREP ligand profiling; details: Compound concentration 10.0 uM
# Sequence of Vascular endothelial growth factor receptor 1 (Homo sapiens) (P17948 whole entry): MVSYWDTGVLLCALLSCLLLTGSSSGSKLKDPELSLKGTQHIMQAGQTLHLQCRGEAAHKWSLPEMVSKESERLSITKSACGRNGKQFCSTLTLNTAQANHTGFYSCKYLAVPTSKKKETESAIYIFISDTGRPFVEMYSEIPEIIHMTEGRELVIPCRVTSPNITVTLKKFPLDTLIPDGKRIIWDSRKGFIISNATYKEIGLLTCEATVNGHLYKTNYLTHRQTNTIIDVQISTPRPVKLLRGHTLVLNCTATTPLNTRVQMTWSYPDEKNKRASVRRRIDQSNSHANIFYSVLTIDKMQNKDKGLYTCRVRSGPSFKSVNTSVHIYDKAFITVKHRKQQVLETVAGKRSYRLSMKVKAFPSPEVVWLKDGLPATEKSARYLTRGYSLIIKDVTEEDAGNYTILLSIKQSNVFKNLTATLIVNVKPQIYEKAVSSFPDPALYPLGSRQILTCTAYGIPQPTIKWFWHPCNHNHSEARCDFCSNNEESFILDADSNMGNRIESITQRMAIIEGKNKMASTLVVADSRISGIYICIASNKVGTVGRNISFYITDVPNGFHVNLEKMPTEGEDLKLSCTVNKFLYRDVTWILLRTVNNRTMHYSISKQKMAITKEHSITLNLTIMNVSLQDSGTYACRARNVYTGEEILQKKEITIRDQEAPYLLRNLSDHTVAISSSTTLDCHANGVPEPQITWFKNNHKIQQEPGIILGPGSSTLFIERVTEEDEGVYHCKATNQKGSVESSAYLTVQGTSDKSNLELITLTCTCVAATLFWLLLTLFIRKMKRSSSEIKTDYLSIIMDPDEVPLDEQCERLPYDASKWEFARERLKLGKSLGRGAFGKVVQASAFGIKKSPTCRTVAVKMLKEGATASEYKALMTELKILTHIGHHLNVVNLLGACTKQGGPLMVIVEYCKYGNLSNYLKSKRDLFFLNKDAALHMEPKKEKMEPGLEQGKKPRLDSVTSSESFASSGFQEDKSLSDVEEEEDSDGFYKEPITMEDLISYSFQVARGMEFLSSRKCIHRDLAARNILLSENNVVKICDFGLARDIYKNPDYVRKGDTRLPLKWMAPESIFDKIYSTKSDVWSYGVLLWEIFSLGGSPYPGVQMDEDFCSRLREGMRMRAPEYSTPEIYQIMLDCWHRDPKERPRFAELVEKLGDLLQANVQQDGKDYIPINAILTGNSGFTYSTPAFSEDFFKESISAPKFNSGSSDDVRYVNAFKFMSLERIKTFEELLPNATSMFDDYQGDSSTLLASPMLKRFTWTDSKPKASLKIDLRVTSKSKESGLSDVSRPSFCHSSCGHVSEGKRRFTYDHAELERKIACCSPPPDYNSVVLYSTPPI
# [25] = biological target: Phosphodiesterase 4 (Rattus norvegicus) (UniProt P14270+P14646+P14644+P54748); experiment: Rolipram CEREP ligand profiling; assay type: protein assay; details: Compound concentration 10.0 uM
# [26] = biological target: Mu-type opioid receptor (Homo sapiens) (UniProt P35372); details: Compound concentration 10.0 uM
# [27] = biological target: Prostaglandin F2-alpha receptor (Homo sapiens, UniProt P43088); experiment: Binding assay (PTGFR)
# [28] = biological target: 5'-AMP-activated protein kinase catalytic subunit alpha-2 (Homo sapiens) (UniProt P54646); details: Compound concentration 1000.0 nM
# Sequence of 5'-AMP-activated protein kinase catalytic subunit alpha-2 (Homo sapiens) (P54646 whole entry, looked up): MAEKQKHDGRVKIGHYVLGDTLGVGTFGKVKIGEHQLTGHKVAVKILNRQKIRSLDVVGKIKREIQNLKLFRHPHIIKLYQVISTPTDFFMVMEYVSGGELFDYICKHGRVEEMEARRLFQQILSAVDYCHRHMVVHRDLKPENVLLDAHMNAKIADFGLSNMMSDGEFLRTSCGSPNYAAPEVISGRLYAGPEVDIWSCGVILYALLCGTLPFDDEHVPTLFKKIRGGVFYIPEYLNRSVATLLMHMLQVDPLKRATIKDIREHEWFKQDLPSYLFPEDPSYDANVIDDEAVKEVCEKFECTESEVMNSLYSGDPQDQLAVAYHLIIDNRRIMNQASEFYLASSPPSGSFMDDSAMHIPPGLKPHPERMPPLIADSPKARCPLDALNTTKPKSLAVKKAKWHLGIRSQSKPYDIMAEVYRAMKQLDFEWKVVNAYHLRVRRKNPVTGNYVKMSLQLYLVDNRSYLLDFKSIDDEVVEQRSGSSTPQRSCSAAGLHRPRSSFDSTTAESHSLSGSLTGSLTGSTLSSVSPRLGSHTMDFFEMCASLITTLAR
# [29] = biological target: CYP2C9 (Homo sapiens, UniProt P11712); experiment: CYP2C9 inhibition CEREP ligand profiling; details: compound concentration 10 uM
# [30] = biological target: Glutamate [NMDA] receptor (Homo sapiens) (UniProt Q05586+Q12879+Q13224+O15399+O60391+Q14957+Q8TCU5); experiment: NMDA CEREP ligand profiling; assay type: protein-complex assay; details: Compound concentration 10.0 uM
# [31] = biological target: Tyrosine-protein kinase ABL1 (Homo sapiens) (UniProt P00519); experiment: Abl kinase (h) CEREP ligand profiling; details: Compound concentration 10.0 uM
# [32] = biological target: cGMP-dependent protein kinase 2 (Homo sapiens) (UniProt Q13237); details: Compound concentration 1000.0 nM
# Sequence of cGMP-dependent protein kinase 2 (Homo sapiens) (Q13237 whole entry, canonical isoform): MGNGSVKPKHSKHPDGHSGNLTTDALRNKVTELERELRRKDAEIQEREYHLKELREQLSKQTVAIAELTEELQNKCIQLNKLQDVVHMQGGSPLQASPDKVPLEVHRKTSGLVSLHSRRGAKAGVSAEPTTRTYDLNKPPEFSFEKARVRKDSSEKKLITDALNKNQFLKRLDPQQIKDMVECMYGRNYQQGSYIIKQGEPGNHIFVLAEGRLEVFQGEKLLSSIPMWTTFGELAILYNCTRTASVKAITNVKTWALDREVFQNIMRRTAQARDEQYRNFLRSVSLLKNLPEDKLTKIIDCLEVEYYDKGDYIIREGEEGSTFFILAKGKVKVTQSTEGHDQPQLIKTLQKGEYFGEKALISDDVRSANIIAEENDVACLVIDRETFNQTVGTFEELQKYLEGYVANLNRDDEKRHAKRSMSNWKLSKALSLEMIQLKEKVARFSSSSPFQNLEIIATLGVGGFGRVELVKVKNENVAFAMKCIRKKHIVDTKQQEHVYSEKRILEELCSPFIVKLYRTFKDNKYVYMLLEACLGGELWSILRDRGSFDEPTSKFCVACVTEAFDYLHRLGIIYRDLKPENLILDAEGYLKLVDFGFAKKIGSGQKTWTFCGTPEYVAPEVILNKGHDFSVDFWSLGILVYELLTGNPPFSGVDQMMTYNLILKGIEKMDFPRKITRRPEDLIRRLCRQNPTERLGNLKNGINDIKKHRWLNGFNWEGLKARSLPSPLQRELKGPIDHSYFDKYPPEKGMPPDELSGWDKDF
# [33] = test system: Phosphatidylinositol 4,5-bisphosphate 3-kinase catalytic subunit alpha isoform (Homo sapiens), P42336 [Q546K]; details: Compound concentration 1000.0 nM
# [34] = biological target: Death-associated protein kinase 2 (Homo sapiens) (UniProt Q9UIK4); details: Compound concentration 1000.0 nM
# [35] = biological target: Serine/threonine-protein kinase Sgk1 (Homo sapiens) (UniProt O00141); details: Compound concentration 1000.0 nM
# [36] = biological target: Adenosine receptor A2a (Homo sapiens) (UniProt P29274); experiment: A2A (h) CEREP ligand profiling; details: Compound concentration 10.0 uM
# [37] = biological target: Phosphatidylinositol 5-phosphate 4-kinase type-2 beta (Homo sapiens) (UniProt P78356); details: Compound concentration 1000.0 nM
# [38] = biological target: D(1A) dopamine receptor (Homo sapiens, UniProt P21728); experiment: D1 (h) CEREP ligand profiling; details: Compound concentration 10.0 uM
# [39] = biological target: D(2) dopamine receptor (Homo sapiens) (UniProt P14416); experiment: D2S (h) CEREP ligand profiling; details: Compound concentration 10.0 uM
# [40] = biological target: Glucocorticoid receptor (Homo sapiens) (UniProt P04150); experiment: GR (h) CEREP ligand profiling; details: Compound concentration 10.0 uM
# [41] = biological target: Activin receptor type-1B (Homo sapiens) (UniProt P36896); details: Compound concentration 1000.0 nM
# Sequence of Activin receptor type-1B (Homo sapiens) (P36896 whole entry): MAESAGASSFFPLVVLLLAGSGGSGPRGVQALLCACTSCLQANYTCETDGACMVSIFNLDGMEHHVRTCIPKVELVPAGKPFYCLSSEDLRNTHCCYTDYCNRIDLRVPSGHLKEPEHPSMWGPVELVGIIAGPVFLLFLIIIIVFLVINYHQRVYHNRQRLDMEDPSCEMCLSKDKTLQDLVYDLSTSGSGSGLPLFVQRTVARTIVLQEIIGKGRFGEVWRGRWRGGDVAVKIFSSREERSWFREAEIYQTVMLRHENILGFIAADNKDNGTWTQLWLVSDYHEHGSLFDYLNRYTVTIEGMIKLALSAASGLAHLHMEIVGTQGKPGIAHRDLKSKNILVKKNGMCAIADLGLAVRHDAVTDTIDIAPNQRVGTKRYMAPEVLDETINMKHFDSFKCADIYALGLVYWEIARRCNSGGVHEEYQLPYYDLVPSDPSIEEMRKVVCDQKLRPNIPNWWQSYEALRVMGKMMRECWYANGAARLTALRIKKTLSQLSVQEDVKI
# [42] = biological target: Adenosine receptor A1 (Homo sapiens) (UniProt P30542); experiment: A1 (h) CEREP ligand profiling; details: Compound concentration 10.0 uM
# [43] = biological target: Serine/threonine-protein kinase Sgk2 (Homo sapiens) (UniProt Q9HBY8); details: Compound concentration 1000.0 nM
# [44] = biological target: Serine/threonine-protein kinase WNK3 (Homo sapiens) (UniProt Q9BYP7); details: Compound concentration 1000.0 nM
# [45] = biological target: Beta-1 adrenergic receptor (Homo sapiens) (UniProt P08588); details: Compound concentration 10.0 uM
# [46] = biological target: Sodium-dependent dopamine transporter (Homo sapiens) (UniProt Q01959); details: Compound concentration 10.0 uM
# Sequence of Serine/threonine-protein kinase ULK1 (Homo sapiens) (O75385 whole entry): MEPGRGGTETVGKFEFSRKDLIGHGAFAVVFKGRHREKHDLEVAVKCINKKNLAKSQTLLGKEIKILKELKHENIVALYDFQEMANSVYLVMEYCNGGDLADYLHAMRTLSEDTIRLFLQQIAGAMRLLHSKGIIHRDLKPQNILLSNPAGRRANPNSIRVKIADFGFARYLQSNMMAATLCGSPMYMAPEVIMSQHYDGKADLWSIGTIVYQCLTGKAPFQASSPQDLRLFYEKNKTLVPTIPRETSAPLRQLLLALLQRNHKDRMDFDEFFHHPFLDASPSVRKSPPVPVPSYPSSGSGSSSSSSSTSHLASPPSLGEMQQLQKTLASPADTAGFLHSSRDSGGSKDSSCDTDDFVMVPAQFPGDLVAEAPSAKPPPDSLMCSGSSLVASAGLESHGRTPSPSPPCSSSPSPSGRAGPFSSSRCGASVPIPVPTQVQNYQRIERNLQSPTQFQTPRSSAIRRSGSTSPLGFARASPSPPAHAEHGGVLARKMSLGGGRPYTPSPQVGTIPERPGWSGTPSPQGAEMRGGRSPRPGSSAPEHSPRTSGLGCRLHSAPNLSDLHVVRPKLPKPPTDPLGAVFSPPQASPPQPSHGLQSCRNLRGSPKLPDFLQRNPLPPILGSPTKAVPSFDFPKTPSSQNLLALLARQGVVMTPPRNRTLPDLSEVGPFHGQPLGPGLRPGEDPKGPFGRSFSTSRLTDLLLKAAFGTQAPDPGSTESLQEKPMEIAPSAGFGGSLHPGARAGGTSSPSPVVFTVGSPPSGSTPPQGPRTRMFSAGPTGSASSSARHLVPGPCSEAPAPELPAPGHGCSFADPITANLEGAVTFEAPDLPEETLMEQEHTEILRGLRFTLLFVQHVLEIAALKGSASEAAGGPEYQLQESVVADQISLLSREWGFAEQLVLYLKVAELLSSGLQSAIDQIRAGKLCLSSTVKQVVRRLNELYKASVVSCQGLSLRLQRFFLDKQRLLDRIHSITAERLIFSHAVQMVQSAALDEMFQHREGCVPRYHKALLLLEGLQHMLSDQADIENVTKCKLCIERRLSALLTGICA
structure (smiles),measurement,setting,value
COc1ccc2cc(OCC3(C(=O)O)CN(C(=O)c4ccc(F)cc4)C3)ccc2c1 [PF-04418948],residual activity,[1],92%
same,residual activity,[2],82%
same,residual activity,[3],96%
same,inhibition,[4],9%
same,inhibition,[5],1%
same,residual activity,[6],84%
same,residual activity,[7],90%
same,inhibition,[8],8%
same,residual activity,[9],94%
same,inhibition,[10],3%
same,inhibition,[11],-3%
same,inhibition,[12],6%
same,residual activity,[13],87%
same,inhibition,[14],-4%
same,residual activity,[15],84%
same,residual activity,[16],90%
same,inhibition,[17],10%
same,inhibition,[18],10%
same,inhibition,[19],-1%
same,inhibition,[20],5%
same,residual activity,[21],97%
same,residual activity,[22],98%
same,residual activity,[23],89%
same,inhibition,[24],9%
same,inhibition,[25],3%
same,inhibition,[26],1.07%
same,Ki,[27],> 10 µM (not active)
same,residual activity,[28],28%
same,inhibition at 10 µM,[29],41% (not active)
same,inhibition,[30],1%
same,inhibition,[31],9%
same,residual activity,[32],85%
same,residual activity,[33],42%
same,residual activity,[34],98%
same,residual activity,[35],81%
same,inhibition,[36],-9%
same,residual activity,[37],74%
same,inhibition,[38],5%
same,inhibition,[39],-2%
same,inhibition,[40],-1%
same,residual activity,[41],78%
same,inhibition,[42],-2%
same,residual activity,[43],87%
same,residual activity,[44],93%
O=C(c1ccc(F)cc1)N1CC(COc2ccc(Br)cc2)(C(=O)O)C1 [PF-04475866],inhibition,[45],-6.66%
same,inhibition,[46],6.07%
